# Experimental data from PMC10746112, “Synthesis and Pro-Apoptotic Effects of Nitrovinylanthracenes and Related Compounds in Chronic Lymphocytic Leukaemia (CLL) and Burkitt’s Lymphoma (BL)” (Molecules, 2023).
# Tested on: MUTU-I Burkitt’s lymphoma cell line
# Assay: not given
# Settings: human, 24 h, 10 µM
row,SMILES,% Viable Cells Remaining MUTU-1 [%]
1,"O=C(c1c2ccccc2cc2ccccc12)N1CCCCCC1 [Compound 33c, Anthracen-9-yl(Azepan-1-yl)Methanone]",77.4
2,O=C(c1c2ccccc2cc2ccccc12)N1CCCCC1 [Compound 33f],84.8
3,"c1ccc2c(C3CNN=N3)c3ccccc3cc2c1 (centres unmarked) [Compound 31, 4-(Anthracen-9-yl)-4,5-Dihydro-1H-1,2,3-Triazole]",103.1
4,"Cc1[nH]nnc1-c1c2ccccc2cc2ccccc12 [Compound 30b, 4-(Anthracen-9-yl)-5-Methyl-1H-1,2,3-Triazole]",107.3
5,"CC(=CCc1c2ccccc2cc2ccccc12)[N+](=O)[O-] [Compound 20b, 9-(3-Nitrobut-2-en-1-yl)Anthracene]",14.55
6,O=C(c1c2ccccc2cc2ccccc12)N1CCCC1 [Compound 33d],95.6
7,CC(=O)/C=C/c1c2ccccc2cc2ccccc12 [Compound 25],103.2

# Tested on: DG-75 Burkitt’s lymphoma cell line
# Assay: alamarBlue cell viability assay
# Settings: Homo sapiens, DG-75, 48 h, read-out: % Viable Cells Remaining DG-75, 1 µM, 48 h
row,SMILES,viability at 1 µM [%]
1,"O=C(c1c2ccccc2cc2ccccc12)N1CCCCCC1 [Compound 33c, Anthracen-9-yl(Azepan-1-yl)Methanone]",69.6
2,O=C(c1c2ccccc2cc2ccccc12)N1CCCCC1 [Compound 33f],72.5
3,"c1ccc2c(C3CNN=N3)c3ccccc3cc2c1 (centres unmarked) [Compound 31, 4-(Anthracen-9-yl)-4,5-Dihydro-1H-1,2,3-Triazole]",96
4,"Cc1[nH]nnc1-c1c2ccccc2cc2ccccc12 [Compound 30b, 4-(Anthracen-9-yl)-5-Methyl-1H-1,2,3-Triazole]",96.2
5,"CC(=CCc1c2ccccc2cc2ccccc12)[N+](=O)[O-] [Compound 20b, 9-(3-Nitrobut-2-en-1-yl)Anthracene]",95.4
6,O=C(c1c2ccccc2cc2ccccc12)N1CCCC1 [Compound 33d],69.4
7,CC(=O)/C=C/c1c2ccccc2cc2ccccc12 [Compound 25],96.3

# Same assay, conditions: Homo sapiens, DG-75, 48 h, read-out: % Viable Cells Remaining DG-75, 10 µM, 48 h
row,SMILES,viability at 10 µM [%]
1,"O=C(c1c2ccccc2cc2ccccc12)N1CCCCCC1 [Compound 33c, Anthracen-9-yl(Azepan-1-yl)Methanone]",71.6
2,O=C(c1c2ccccc2cc2ccccc12)N1CCCCC1 [Compound 33f],78.8
3,"c1ccc2c(C3CNN=N3)c3ccccc3cc2c1 (centres unmarked) [Compound 31, 4-(Anthracen-9-yl)-4,5-Dihydro-1H-1,2,3-Triazole]",> 90
4,"Cc1[nH]nnc1-c1c2ccccc2cc2ccccc12 [Compound 30b, 4-(Anthracen-9-yl)-5-Methyl-1H-1,2,3-Triazole]",> 90
5,"CC(=CCc1c2ccccc2cc2ccccc12)[N+](=O)[O-] [Compound 20b, 9-(3-Nitrobut-2-en-1-yl)Anthracene]",79 to 97
6,O=C(c1c2ccccc2cc2ccccc12)N1CCCC1 [Compound 33d],67.1
7,CC(=O)/C=C/c1c2ccccc2cc2ccccc12 [Compound 25],> 90

# Tested on: DG-75 Burkitt’s lymphoma cell line
# Assay: not given
# Settings: human, 48 h, 10 µM
row,SMILES,% Viable Cells Remaining DG-75 [%]
1,"c1ccc2c(C3CNN=N3)c3ccccc3cc2c1 (centres unmarked) [Compound 31, 4-(Anthracen-9-yl)-4,5-Dihydro-1H-1,2,3-Triazole]",103.1
2,"Cc1[nH]nnc1-c1c2ccccc2cc2ccccc12 [Compound 30b, 4-(Anthracen-9-yl)-5-Methyl-1H-1,2,3-Triazole]",100.6
3,"CC(=CCc1c2ccccc2cc2ccccc12)[N+](=O)[O-] [Compound 20b, 9-(3-Nitrobut-2-en-1-yl)Anthracene]",97.63
4,CC(=O)/C=C/c1c2ccccc2cc2ccccc12 [Compound 25],100.5

# Tested on: MUTU-I Burkitt’s lymphoma cell line
# Assay: alamarBlue cell viability assay
# Settings: MUTU-I, 24 h, read-out: % Viable Cells Remaining MUTU-1, 1 µM, 24 h
row,SMILES,viability at 1 µM [%]
1,"O=C(c1c2ccccc2cc2ccccc12)N1CCCCCC1 [Compound 33c, Anthracen-9-yl(Azepan-1-yl)Methanone]",86.8
2,O=C(c1c2ccccc2cc2ccccc12)N1CCCCC1 [Compound 33f],83.1
3,"c1ccc2c(C3CNN=N3)c3ccccc3cc2c1 (centres unmarked) [Compound 31, 4-(Anthracen-9-yl)-4,5-Dihydro-1H-1,2,3-Triazole]",96
4,"Cc1[nH]nnc1-c1c2ccccc2cc2ccccc12 [Compound 30b, 4-(Anthracen-9-yl)-5-Methyl-1H-1,2,3-Triazole]",108
5,"CC(=CCc1c2ccccc2cc2ccccc12)[N+](=O)[O-] [Compound 20b, 9-(3-Nitrobut-2-en-1-yl)Anthracene]",105
6,O=C(c1c2ccccc2cc2ccccc12)N1CCCC1 [Compound 33d],91.6
7,CC(=O)/C=C/c1c2ccccc2cc2ccccc12 [Compound 25],107

# Same assay, conditions: MUTU-I, 24 h, read-out: % Viable Cells Remaining MUTU-1, 10 µM, 24 h
row,SMILES,viability at 10 µM [%]
1,"O=C(c1c2ccccc2cc2ccccc12)N1CCCCCC1 [Compound 33c, Anthracen-9-yl(Azepan-1-yl)Methanone]",77.4
2,O=C(c1c2ccccc2cc2ccccc12)N1CCCCC1 [Compound 33f],84.8
3,"c1ccc2c(C3CNN=N3)c3ccccc3cc2c1 (centres unmarked) [Compound 31, 4-(Anthracen-9-yl)-4,5-Dihydro-1H-1,2,3-Triazole]",> 90
4,"Cc1[nH]nnc1-c1c2ccccc2cc2ccccc12 [Compound 30b, 4-(Anthracen-9-yl)-5-Methyl-1H-1,2,3-Triazole]",> 90
5,"CC(=CCc1c2ccccc2cc2ccccc12)[N+](=O)[O-] [Compound 20b, 9-(3-Nitrobut-2-en-1-yl)Anthracene]",15 to 40
6,O=C(c1c2ccccc2cc2ccccc12)N1CCCC1 [Compound 33d],95.6
7,CC(=O)/C=C/c1c2ccccc2cc2ccccc12 [Compound 25],> 90

# Tested on: not given
# Assay: not given
# Settings: not given
row,SMILES,melting point [°C]
1,"O=C(c1c2ccccc2cc2ccccc12)N1CCCCCC1 [Compound 33c, Anthracen-9-yl(Azepan-1-yl)Methanone]",134 to 137
2,O=C(c1c2ccccc2cc2ccccc12)N1CCCCC1 [Compound 33f],181 to 183
3,"c1ccc2c(C3CNN=N3)c3ccccc3cc2c1 (centres unmarked) [Compound 31, 4-(Anthracen-9-yl)-4,5-Dihydro-1H-1,2,3-Triazole]",266 to 268
4,"Cc1[nH]nnc1-c1c2ccccc2cc2ccccc12 [Compound 30b, 4-(Anthracen-9-yl)-5-Methyl-1H-1,2,3-Triazole]",231 to 232
5,O=C(c1c2ccccc2cc2ccccc12)N1CCCC1 [Compound 33d],149 to 151
